Assay results from the supplement of paper PMC10307832.

Key:
Assay in all cases: relative viability (nuclei count vs DMSO), 5 days (fraction); higher = more cells survive
LC-2-ad = tested on: LC-2-ad
How it was run: (§1)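 Lung cancer cell lines were seeded in 1536-well plates and dosed by pin tool the next day, with either a single drug or a fixed anchor-drug dose combined with five library-drug doses (not always all listed) spaced in √10 steps. Five days later, one step fixed the cells and stained their nuclei (final 0.05% Triton X-100, 1% formaldehyde, 1 ug/ml Hoechst), and nuclei were counted on 4× images. Relative viability is the nuclei count in treated wells divided by the count in vehicle wells, and each value is the median of duplicate plates.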

NCI-H2228 = tested on: NCI-H2228
How it was run: as §1

NCI-H650 = tested on: NCI-H650
How it was run: as §1

SK-MES-1 = tested on: SK-MES-1
How it was run: as §1

UMC-11 = tested on: UMC-11
How it was run: as §1

NCI-H2347 = tested on: NCI-H2347
How it was run: as §1

NCI-H1355 = tested on: NCI-H1355
How it was run: as §1

NCI-H1993 = tested on: NCI-H1993
How it was run: as §1

NCI-H1734 = tested on: NCI-H1734
How it was run: as §1

NCI-H1975 = tested on: NCI-H1975
How it was run: as §1

A-427 = tested on: A-427
How it was run: as §1

NCI-H1755 = tested on: NCI-H1755
How it was run: as §1

NCI-H23 = tested on: NCI-H23
How it was run: as §1

LCLC-103H = tested on: LCLC-103H
How it was run: as §1

RERF-LC-KJ = tested on: RERF-LC-KJ
How it was run: as §1

NCI-H1915 = tested on: NCI-H1915
How it was run: as §1

NCI-H2170 = tested on: NCI-H2170
How it was run: as §1

SW 1573 = tested on: SW 1573
How it was run: as §1

HCC-366 = tested on: HCC-366
How it was run: as §1

NCI-H1792 = tested on: NCI-H1792
How it was run: as §1

SK-LU-1 = tested on: SK-LU-1
How it was run: as §1

HCC-827 = tested on: HCC-827
How it was run: as §1

SMILES: CCNC(=O)c1noc(-c2cc(C(C)C)c(O)cc2O)c1-c1ccc(CN2CCOCC2)cc1 [Luminespib] + Cc1nc(NC(=O)N2CCC[C@H]2C(N)=O)sc1-c1ccnc(C(C)(C)C(F)(F)F)c1 [Alpelisib] (partner 2 µM)
- relative viability (LC-2-ad; first compound 0.002 µM): 0.881
- relative viability (LC-2-ad; first compound 0.006325 µM): 0.821
- relative viability (LC-2-ad; first compound 0.02 µM): 0.858
- relative viability (LC-2-ad; first compound 0.06325 µM): 0.123
- relative viability (LC-2-ad; first compound 0.2 µM): 0.092
- relative viability (NCI-H2228; first compound 0.002 µM): 0.808
- relative viability (NCI-H2228; first compound 0.006325 µM): 0.595
- relative viability (NCI-H2228; first compound 0.02 µM): 0.156
- relative viability (NCI-H2228; first compound 0.06325 µM): 0.142
- relative viability (NCI-H2228; first compound 0.2 µM): 0.136
- relative viability (NCI-H650; first compound 0.002 µM): 1.24
- relative viability (NCI-H650; first compound 0.006325 µM): 1.04
- relative viability (NCI-H650; first compound 0.02 µM): 0.994
- relative viability (NCI-H650; first compound 0.06325 µM): 0.193
- relative viability (NCI-H650; first compound 0.2 µM): 0.145
- relative viability (SK-MES-1; first compound 0.002 µM): 0.82
- relative viability (SK-MES-1; first compound 0.006325 µM): 0.858
- relative viability (SK-MES-1; first compound 0.02 µM): 0.593
- relative viability (SK-MES-1; first compound 0.06325 µM): 0.306
- relative viability (SK-MES-1; first compound 0.2 µM): 0.133
- relative viability (UMC-11; first compound 0.002 µM): 0.943
- relative viability (UMC-11; first compound 0.006325 µM): 0.907
- relative viability (UMC-11; first compound 0.02 µM): 0.653
- relative viability (UMC-11; first compound 0.06325 µM): 0.342
- relative viability (UMC-11; first compound 0.2 µM): 0.129
- relative viability (NCI-H2347; first compound 0.002 µM): 1.14
- relative viability (NCI-H2347; first compound 0.02 µM): 0.779
- relative viability (NCI-H2347; first compound 0.06325 µM): 0.936
- relative viability (NCI-H2347; first compound 0.2 µM): 0.382
- relative viability (NCI-H1355; first compound 0.002 µM): 0.915
- relative viability (NCI-H1355; first compound 0.006325 µM): 0.913
- relative viability (NCI-H1355; first compound 0.02 µM): 0.403
- relative viability (NCI-H1355; first compound 0.06325 µM): 0.903
- relative viability (NCI-H1355; first compound 0.2 µM): 0.594
- relative viability (NCI-H1993; first compound 0.002 µM): 0.676
- relative viability (NCI-H1993; first compound 0.006325 µM): 0.74
- relative viability (NCI-H1993; first compound 0.02 µM): 0.588
- relative viability (NCI-H1993; first compound 0.06325 µM): 0.606
- relative viability (NCI-H1993; first compound 0.2 µM): 0.548
- relative viability (NCI-H1734; first compound 0.002 µM): 0.708
- relative viability (NCI-H1734; first compound 0.006325 µM): 0.736
- relative viability (NCI-H1734; first compound 0.02 µM): 0.541
- relative viability (NCI-H1734; first compound 0.06325 µM): 0.213
- relative viability (NCI-H1734; first compound 0.2 µM): 0.158
- relative viability (NCI-H1975; first compound 0.002 µM): 0.667
- relative viability (NCI-H1975; first compound 0.006325 µM): 0.512
- relative viability (NCI-H1975; first compound 0.02 µM): 0.233
- relative viability (NCI-H1975; first compound 0.06325 µM): 0.137
- relative viability (NCI-H1975; first compound 0.2 µM): 0.126
- relative viability (A-427; first compound 0.002 µM): 1.02
- relative viability (A-427; first compound 0.006325 µM): 1.07
- relative viability (A-427; first compound 0.02 µM): 0.697
- relative viability (A-427; first compound 0.06325 µM): 1.08
- relative viability (A-427; first compound 0.2 µM): 1.09
- relative viability (NCI-H1755; first compound 0.002 µM): 0.972
- relative viability (NCI-H1755; first compound 0.006325 µM): 0.887
- relative viability (NCI-H1755; first compound 0.02 µM): 0.823
- relative viability (NCI-H1755; first compound 0.06325 µM): 0.905
- relative viability (NCI-H1755; first compound 0.2 µM): 0.561
- relative viability (NCI-H23; first compound 0.002 µM): 0.814
- relative viability (NCI-H23; first compound 0.006325 µM): 0.56
- relative viability (NCI-H23; first compound 0.02 µM): 0.504
- relative viability (NCI-H23; first compound 0.06325 µM): 0.141
- relative viability (NCI-H23; first compound 0.2 µM): 0.116
- relative viability (LCLC-103H; first compound 0.002 µM): 0.969
- relative viability (LCLC-103H; first compound 0.006325 µM): 1.01
- relative viability (LCLC-103H; first compound 0.02 µM): 0.85
- relative viability (LCLC-103H; first compound 0.06325 µM): 0.928
- relative viability (LCLC-103H; first compound 0.2 µM): 1
- relative viability (RERF-LC-KJ; first compound 0.002 µM): 0.813
- relative viability (RERF-LC-KJ; first compound 0.006325 µM): 0.894
- relative viability (RERF-LC-KJ; first compound 0.02 µM): 0.51
- relative viability (RERF-LC-KJ; first compound 0.06325 µM): 0.541
- relative viability (RERF-LC-KJ; first compound 0.2 µM): 0.242
- relative viability (NCI-H1915; first compound 0.002 µM): 1.09
- relative viability (NCI-H1915; first compound 0.006325 µM): 0.987
- relative viability (NCI-H1915; first compound 0.02 µM): 0.862
- relative viability (NCI-H1915; first compound 0.06325 µM): 1.08
- relative viability (NCI-H1915; first compound 0.2 µM): 1.04
- relative viability (NCI-H2170; first compound 0.002 µM): 0.763
- relative viability (NCI-H2170; first compound 0.006325 µM): 0.79
- relative viability (NCI-H2170; first compound 0.02 µM): 0.526
- relative viability (NCI-H2170; first compound 0.06325 µM): 0.504
- relative viability (NCI-H2170; first compound 0.2 µM): 0.172
- relative viability (SW 1573; first compound 0.002 µM): 0.714
- relative viability (SW 1573; first compound 0.006325 µM): 0.728
- relative viability (SW 1573; first compound 0.02 µM): 0.501
- relative viability (SW 1573; first compound 0.06325 µM): 0.165
- relative viability (SW 1573; first compound 0.2 µM): 0.113
- relative viability (HCC-366; first compound 0.002 µM): 0.442
- relative viability (HCC-366; first compound 0.006325 µM): 0.496
- relative viability (HCC-366; first compound 0.02 µM): 0.312
- relative viability (HCC-366; first compound 0.06325 µM): 0.0181
- relative viability (HCC-366; first compound 0.2 µM): 0.0182
- relative viability (NCI-H1792; first compound 0.002 µM): 0.595
- relative viability (NCI-H1792; first compound 0.006325 µM): 0.621
- relative viability (NCI-H1792; first compound 0.02 µM): 0.355
- relative viability (NCI-H1792; first compound 0.06325 µM): 0.308
- relative viability (NCI-H1792; first compound 0.2 µM): 0.1
- relative viability (SK-LU-1; first compound 0.002 µM): 1.33
- relative viability (SK-LU-1; first compound 0.006325 µM): 0.7
- relative viability (SK-LU-1; first compound 0.02 µM): 0.305
- relative viability (SK-LU-1; first compound 0.06325 µM): 0.18
- relative viability (SK-LU-1; first compound 0.2 µM): 0.161
- relative viability (HCC-827; first compound 0.002 µM): 1
- relative viability (HCC-827; first compound 0.006325 µM): 0.981
- relative viability (HCC-827; first compound 0.02 µM): 0.849
- relative viability (HCC-827; first compound 0.06325 µM): 0.976
- relative viability (HCC-827; first compound 0.2 µM): 0.931
